Where a name gives a salt, the structure may show the parent alone. Read-outs that look alike come from different tables or passages of the source.
Key:
[1] = target: T1, 5-HT1A type serotoninergic receptors (Rattus norvegicus, UniProt P19327); test: 5-HT syndrome in rats (FBP, LLR, FPT); assay type: in vivo; conditions: ip, male Sprague Dawley rats
T1 construct: carried out in male rats (Sprague Dawley); from tissue; host or cells: living male Sprague Dawley rats (whole animal)
T1 sequence (P19327 1-422): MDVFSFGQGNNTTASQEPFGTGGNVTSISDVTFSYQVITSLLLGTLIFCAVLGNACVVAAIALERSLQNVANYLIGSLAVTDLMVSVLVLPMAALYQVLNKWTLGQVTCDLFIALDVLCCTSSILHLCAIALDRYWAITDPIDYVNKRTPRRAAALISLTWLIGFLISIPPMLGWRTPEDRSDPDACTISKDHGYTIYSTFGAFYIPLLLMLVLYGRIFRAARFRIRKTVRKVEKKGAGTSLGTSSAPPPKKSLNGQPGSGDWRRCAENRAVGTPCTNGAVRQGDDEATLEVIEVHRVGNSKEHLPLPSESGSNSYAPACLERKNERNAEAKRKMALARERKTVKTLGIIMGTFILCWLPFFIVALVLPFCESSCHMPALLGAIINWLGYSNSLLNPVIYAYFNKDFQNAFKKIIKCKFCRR
Description: The central activity of the compounds of the invention was evaluated for their capacity to cause the 5-HT syndrome, which is characterized by reciprocal fore-paw treading (FPT), lower-lip retraction (LLR) and flat body posture (FBP).
The experiments for the evaluation of the 5-HT syndrome are carried out in male rats (Sprague Dawley) according to the method described by F.C COLPAERT et al (Drug Dev. Res., 26, 21-48; 1992).

5-HT1A receptor = target: T2, 5-HT1A receptor (Rattus norvegicus, UniProt P19327); test: biochemical; assay type: binding; conditions: rat cerebral cortex, [^3 H]8-OH-DPAT 0.2 nM, 23° C., 30 minutes, mean of 3 to 5 experiments; for Ki: read-out: pKi (Affinity for the 5-HT1A receptor) (converted)
T2 sequence (P19327 1-422): T1 sequence (P19327 1-422)

[2] = FPT, read-out: ED50 reciprocal fore-paw treading (FPT), 5-HT syndrome
[3] = FBP, read-out: ED50 flat body posture (FBP), 5-HT syndrome
[4] = LLR, read-out: ED50 lower-lip retraction (LLR), 5-HT syndrome

Compound	Ki (5-HT1A receptor)	also measured
O=C1CC2(CCCC2)CC(=O)N1CCCCN1CCN(c2ncccn2)CC1 [Buspirone, reference compound]	–	ED50 [1, 2]: > 40 mg/kg
Cc1ccnc(N2CCN(CCCCn3ncc(=O)n(C)c3=O)CC2)n1 [Compound 25]	0.724 nM	–
Cc1nn(CCCCN2CCN(c3cccc(C(F)(F)F)c3)CC2)c(=O)n(C)c1=O [Compound 13, 4,6-dimethyl-2-(4-(4-(3-trifluoromethylphenyl)piperazino)butyl-3,5-dioxo-(2H,4H)-1,2,4-triazine hydrochloride]	2.63 nM	–
Cn1c(=O)cnn(CCCCN2CCN(c3ncccn3)CC2)c1=O [Compound 9, 4-methyl-2-(4-(4-pyrimidinyl-2)piperazino)butyl-3,5-dioxo-(2H,4H)-1,2,4-triazine]	4.57 nM	ED50 [1, 3]: 0.08 mg/kg; ED50 [1, 2]: 0.31 mg/kg; ED50 [1, 4]: 0.08 mg/kg
CN(CCCCn1ncc(=O)n(C)c1=O)CC1COc2ccccc2O1 (stereo not drawn) [Compound 15, 4-methyl-2-(4-(N-methyl, 1,4-benzodioxan-2-ylmethylamino)butyl)-3,5-dioxo-(2H,4H)-1,2,4-triazine fumarate]	2.82 nM	–
Cc1nn(CCCCN2CCN(c3cccc(C(F)(F)F)c3)CC2)c(=O)[nH]c1=O [Compound 12, 6-methyl-2-(4-(4-(3-trifluoromethylphenyl)piperazino)butyl)-3,5-dioxo-(2H,4H)-1,2,4-triazine]	6.46 nM	–
Cc1cc(C)nc(N2CCN(CCCCn3ncc(=O)n(C)c3=O)CC2)n1 [Compound 26, 4-methyl-2-(4-(4-(4,6-dimethyl-2-pyrimidinyl)piperazino)butyl)-3,5-dioxo-(2H,4H)-1,2,4-triazine]	0.646 nM	–
4-methyl-2-(4-(2,3-dihydro-1,4-dioxino-[2,3-b]-pyridin-2-ylmethylamino)butyl)-3,5-dioxo-(2H,4H)-1,2,4-triazine fumarate [Compound 16]	–	pKi (Affinity for the 5-HT1A receptor) (5-HT1A receptor): 9.36
Cn1c(=O)cnn(CCCCN2CCN(c3cc(Cl)cc(Cl)c3)CC2)c1=O [Compound 23, 4-methyl-2-(4-(4-(3,5-dichloro-phenyl)piperazino)butyl)-3,5-dioxo-(2H,4H)-1,2,4-triazine]	0.912 nM	–
COc1ccc2cccc(N3CCN(CCCCn4ncc(=O)n(C)c4=O)CC3)c2c1 [Compound 10, 4-methyl-2-(4-(4-(7-methoxynaphthalene-1-yl)piperazino)butyl-3,5-dioxo-(2H,4H)-1,2,4-triazine fumarate]	0.0324 nM	ED50 [1, 3]: 0.02 mg/kg; ED50 [1, 2]: 0.02 mg/kg; ED50 [1, 4]: 0.005 mg/kg
COc1ccccc1N1CCN(CCCCn2ncc(=O)n(C)c2=O)CC1 [Compound 11]	0.132 nM	–
4-methyl-2-(4-(4-(4,6-dimethyl-2-pyrimidinyl)piperazino)butyl)-3,5-dioxo-(2H,4H)-1,2,4-triazine [Compound 27]	–	pKi (Affinity for the 5-HT1A receptor) (5-HT1A receptor): 9.23
O=c1cnn(CCCCN2CCN(c3cccc(C(F)(F)F)c3)CC2)c(=O)[nH]1 [Compound 1, 2-[4-(4-(3-trifluoromethylphenyl)piperazino)butyl]-3,5-dioxo-(2H,4H)-1,2,4-triazine hydrochloride]	0.55 nM	–
Cn1c(=O)cnn(CCCCN2CCN(c3cccc(Cl)c3Cl)CC2)c1=O [Compound 22, 4-methyl-2-(4-(4-(2,3-dichloro-phenyl)piperazino)butyl)-3,5-dioxo-(2H,4H)-1,2,4-triazine]	0.316 nM	–
Cl.Cn1c(=O)cnn(CCCCN2CCN(c3cccc(C(F)(F)F)c3)CC2)c1=O [Compound 3, 4-methyl-2-(4-(4-(3-trifluoromethylphenyl)piperazino)butyl)-3,5-dioxo-(2H,4H)-1,2,4-triazine hydrochloride]	0.24 nM	ED50 [1, 3]: 0.31 mg/kg; ED50 [1, 2]: 0.31 mg/kg; ED50 [1, 4]: 0.08 mg/kg
COc1ccnc(N2CCN(CCCCn3ncc(=O)n(C)c3=O)CC2)n1 [Compound 28, 4-methyl-2-(4-(4-(4-methoxy-2-pyrimidinyl)piperazino)butyl)-3,5-dioxo-(2H,4H)-1,2,4-triazine]	0.851 nM	–
Cn1c(=O)cnn(CCCCN2CCN(c3cccc(Cl)c3)CC2)c1=O [Compound 4, 4-methyl-2-(4-(4-(3-chlorophenyl)piperazino)butyl)-3,5-dioxo-(2H,4H)-1,2,4-triazine]	0.269 nM	–
Cn1c(=O)cnn(CCCCNCC2COc3ccccc3O2)c1=O (stereo not drawn) [Compound 14, 4-methyl-2-(4-(1,4-benzodioxane-2-ylmethylamino)butyl)-3,5-dioxo-(2H,4H)-1,2,4-triazine]	0.269 nM	–
Cn1c(=O)cnn(CCCCN2CCN(c3nccc(Cl)n3)CC2)c1=O [Compound 24]	0.794 nM	–
Cn1c(=O)cnn(CCCCN2CCN(c3ccc(Cl)c(Cl)c3)CC2)c1=O [Compound 21, 4-methyl-2-(4-(4-(3,4-dichloro-phenyl)piperazino)butyl)-3,5-dioxo-(2H,4H)-1,2,4-triazine]	2.63 nM	–
Cn1c(=O)cnn(CCCCN2CCN(c3ncccn3)CC2)c1=O [Compound 30, 4-methyl-2-(4-(4-(2-pyrimidinyl)piperazino)butyl)-3,5-dioxo-(2H,4H)-1,2,4-triazine fumarate]	3.31 nM	–

From patent US5977106A, “3,5-dioxo-(2H,4H)-1,2,4-triazine derivatives” (Pierre Fabre Medicament, priority 1994, dated 1999)
